Experiments:
HIV-1 [1] = conditions: Table 3
Method: MDM, and PBMC, were incubated with HIV at a multiplicity of infection of 0.02, and 0.006 or 0.001, respectively. After two hours cells are washed to remove unbound virus and cultured for 4 to 7 days in different concentrations of the drug under investigation. On day 4, 5 and 7, 0.01 ml of supernatant is removed from the culture and virus in culture supernatant is inactivated in a final concentration of 0.05% empigen (Calbiochem-Novabiochem Co., La Jolla, Calif.). The presence of HIV-1 in the inactivated supernatant is monitored by checking for the p24-core antigen using the enzyme-linked immunosorbent assay (ELISA) system of John Moore.

HIV-1Ba-L [2] = assay: HIV-1 production by chronically infected MDM, p24 ELISA; type: cell-based; conditions: APHS added 5 days after infection, 2 days incubation (FIG. 6D)
HIV-1BaL = HIV-1BaL replication in acutely infected PHA-stimulated PBMC, p24 ELISA; type: cell-based
Method: (§1) FIG. 4—Peripheral blood mononuclear cells (PBMC) were isolated from heparinized blood from HIV-1-, HIV-2-, and hepatitis B-seronegative donors and obtained on Ficoll-Hypaque density gradients. Cells were washed twice, stimulated with 5 mg/ml phytohemagglutinin (PHA), and cultured in RPMI-1640 medium supplemented with 5 mM Hepes, 19 mM sodium bicarbonate, 10 mg/mL gentamycin, and 10% heat-inactivated fetal calf serum at a concentration of 2×10^6 cells/ml. After 3 days of incubation stimulated PBMC were recovered from the flasks and infected for 2 hours with (a) HIV-1AT at a multiplicity of infection of 0.001, (b) HIV-1BaL at a multiplicity of infection of 0.006 and (c) HIV-1BaL or HIV-1AT at a multiplicity of infection of 0.01 or 0.001, respectively. HIV-infected and mock-infected PBMC were washed twice to remove unbound virus and cultured for 4 to 7 days in different concentrations of APHS. After 4 and 5 days of incubation samples of culture supernatant were collected and p24-core antigen production was quantified using the enzyme-linked immunosorbent assay (ELISA) system of John Moore.
Peripheral blood mononuclear cell (PBMC) fractions are isolated from heparinised blood from HIV-1-, HIV-2- and hepatitis B- seronegative donors (Blood-bank, Utrecht, the Netherlands) by Ficoll-Isopaque gradient separation. Cells are washed twice, stimulated with 4 μg/ml phytohemagglutinin (PHA), and cultured in RPMI-1640 medium supplemented with 5 mM Hepes, 19 mM sodium bicarbonate, 10 μg/ml gentamycin, and 10% heat-inactivated fetal calf serum at a concentration of 1×10^6 cells/ml.
(A, B) Peripheral blood mononuclear cells (PBMC) were isolated from heparinized blood from HIV-1-, HIV-2-, and hepatitis B- seronegative donors and obtained on Ficoll-Hypaque density gradients. […] After 2 days of incubation samples of culture supernatant were collected. p24-core antigen production was quantified using the enzyme-linked immunosorbent assay (ELISA) system of John Moore.

HIV-1Ba-L [3] = assay: HIV-1 production of chronically infected PBMC, p24 ELISA; type: cell-based; conditions: APHS added 5 days after infection, 2 days incubation (FIG. 6B)
Method: (A, B) Peripheral blood mononuclear cells (PBMC) were isolated from heparinized blood from HIV-1-, HIV-2-, and hepatitis B- seronegative donors and obtained on Ficoll-Hypaque density gradients. Cells were washed twice, stimulated with 5 μg/ml phytohemagglutinin (PHA), and cultured in RPMI-1640 medium supplemented with 5 mM Hepes, 19 mM sodium bicarbonate, 10 μg/mL gentamycin, and 10% heat-inactivated fetal calf serum (PBMC culture medium) at a concentration of 2×10^6 cells/ml. After 3 days of incubation stimulated PBMC were recovered from the flasks and infected for 2 hours with HIV-1Ba-L at a multiplicity of infection of 0.01. Afterwards, HIV-infected and mock-infected PBMC were washed twice to remove unbound virus. (A) PBMC were cultured at a density of 6×10^5 cells/well with different concentrations of APHS and after 5 days of incubation samples of culture supernatant were collected. (B) PBMC were cultured in suspension at a concentration of 2×10^6 cells/ml in Teflon flasks in PBMC culture medium. […] After 2 days of incubation samples of culture supernatant were collected. p24-core antigen production was quantified using the enzyme-linked immunosorbent assay (ELISA) system of John Moore. […]

HIV-1 [4] = conditions: PBMC, FIG. 4
Method: as §1

[5] = test system: monocyte-derived macrophages (MDM); assay: MDM viability, MTT cytotoxicity assay; type: cell-based, human; conditions: 4 day incubation
Method: FIG. 3—Monocyte-derived macrophages (MDM) were obtained like described in legend of FIG. 2. […] After a 4 day incubation period, cellular viability was assessed by MTT cytotoxicity assay where viable cells convert MTT into a colored formazan dye that can be measured spectrophotometrically.
Cell viability is assessed by the MTT assay. In short, cells are incubated with MTT 3-(4,5-dimethylthiazol-2-yl)-2,5-diphenyltetrazollumbromide (Sigma) for 2 hours at 37° C. During this time viable cells convert MTT into […] formazan dyes. Afterwards crystals are solubilized with a solution containing isopropanol. The OD of the supernatant is measured at 550 nm.
Monocyte-derived macrophages (MDM) were obtained like described above. […] After a 4 days incubation period cellular viability was assessed by MTT cytotoxicity assay where viable cells convert MTT into a colored formazan dye that can be measured spectrophotometrically.

[6] = Toxicity determinations of anti-viral compounds (Table 3); type: cell-based
HIV-1Ba-L [7] = assay: HIV-1Ba-L replication in acutely infected monocyte-derived macrophages, p24 ELISA; type: cell-based; conditions: 30 μM APHS, acutely infected MDM, moi 0.02
Method: Concentrations above 0.3 μM APHS inhibit p24 production. 30 μM APHS inhibits HIV-1 replication by 88%.
Cells are washed twice and monocytes are purified by countercurrent centrifugal elutriation.

[8] = test system: drug-resistant HIV strains; conditions: drug-resistant vs sensitive strain
PBMC = PBMC viability, WST-1 cytotoxicity assay; type: cell-based, human; conditions: 5 days incubation
Method: FIG. 5—PBMC were obtained and stimulated as described in legend of FIG. 4. […] After a 5 days incubation period, cellular viability was assessed by WST-1 cytotoxicity assay where viable cells convert WST-1 into a coloured formazan dye that can be measured spectrophotometrically.
Cell viability is assessed with WST-1 assay. Cells are incubated with the tetrazolium salt WST-1 (4-[3-(4-lodophenyl)-2-(4-nitrophenyl)-2H-5-tetrazolio]-1,3-benzene disulfonate) for 2 hours at 37° C. During this time viable cells convert WST-1 into water-soluble formazan dyes. The OD of the supernatant is measured at 550 nm.

Row | SMILES | IC50 (HIV-1 [1]) | inhibition of HIV-1 production by chronically infected MDM (HIV-1Ba-L [2]) | inhibition of HIV-1BaL production (HIV-1BaL; 1 μM APHS, PBMC, lower infectivity (FIG. 4c)) | inhibition of HIV-1Ba-L replication (HIV-1BaL; 30 μM APHS, acutely infected PBMC, moi 0.01 (FIG. 6A)) | inhibition of HIV-1BaL replication (HIV-1BaL; PBMC, FIG. 4) | APHS concentrations that inhibit HIV-1Ba-L replication (HIV-1BaL; acutely infected PBMC, moi 0.01, 5 days (FIG. 6A)) | inhibition of HIV-1 production of chronically infected PBMCs (HIV-1Ba-L [3]) | APHS concentrations that inhibit HIV-1 production (HIV-1 [4]) | cytotoxicity (MTT) [5] | not toxic at [6] | inhibition of HIV-1 replication (HIV-1Ba-L [7]) | inhibitory activity against drug resistant strains relative to a sensitive strain [8] | concentrations found to reduce viability (WST-1) (PBMC)
1 | CCCCC#CCSc1ccccc1OC(C)=O [APHS, o-(acetoxy-phenyl)hept-2-ynyl sulfide] | 10 µM | does not inhibit | 50% | 100% | 100% | above 3 μM | does not inhibit | above 1 μM | None of the tested concentrations of APHS was found to be cytotoxic | 30 µM | 88% | two- to four-fold higher | ≥ 100 µM
2 | CCCCC#CCSc1ccccc1OCCCC [BPHS] | 40 µM |  |  |  |  |  |  |  |  | 30 µM |  |  | 

Source: patent US20050059745A1, “Antiviral therapy” (priority 1999, published 2005)
